Results taken from BigSolDB 2.1.

Cc1ccc(C)c(O)c1
Details | solubility (mole fraction)
in ethyl acetate, 282.85 K | 0.414
in ethyl acetate, 289.95 K | 0.449
in ethyl acetate, 298.45 K | 0.494
in ethyl acetate, 304.35 K | 0.529
in ethyl acetate, 309.95 K | 0.563
in ethyl acetate, 314.75 K | 0.596
in ethyl acetate, 329.05 K | 0.713
in methanol, 281.05 K | 0.273
in methanol, 284.75 K | 0.291
in methanol, 289.15 K | 0.315
in methanol, 293.75 K | 0.342
in methanol, 299.45 K | 0.381
in methanol, 305.85 K | 0.425
in methanol, 307.25 K | 0.435
in methanol, 314.25 K | 0.492
in methanol, 317.25 K | 0.522
in methanol, 321.15 K | 0.563
in n-butanol, 281.15 K | 0.308
in n-butanol, 285.65 K | 0.331
in n-butanol, 289.9 K | 0.354
in n-butanol, 294.45 K | 0.38
in n-butanol, 298.9 K | 0.408
in n-butanol, 304.95 K | 0.449
in n-butanol, 311.65 K | 0.501
in n-butanol, 317.25 K | 0.551
in n-butanol, 322.75 K | 0.608
in n-butanol, 331.2 K | 0.706
in n-hexanol, 282.6 K | 0.325
in n-hexanol, 288.75 K | 0.356
in n-hexanol, 293.25 K | 0.378
in n-hexanol, 296.65 K | 0.4
in n-hexanol, 300.35 K | 0.424
in n-hexanol, 310.75 K | 0.498
in n-hexanol, 321.65 K | 0.598
in n-hexanol, 326.55 K | 0.652
in n-hexanol, 331.05 K | 0.707
in n-hexanol, 335.35 K | 0.764
